Assay results reported in patent publication US9957246B2, “Prodrugs of tetrahydrocannabinol, compositions comprising prodrugs of tetrahydrocannabinol and methods of using the same” (Zynerba Pharmaceuticals, Inc., priority 2007, dated 2018).

Assays:
[1] = In vitro human skin permeation, flow-through diffusion cells
[2] = Plasma stability of prodrugs (bioconversion to parent drug); type: in vitro ADME
Method: Approximately 1 mg/mL of stock solution of each prodrug was prepared in 100 μL of ethanol and 900 μL of acetonitrile. Next, 10 μL of stock was spiked into 1 mL of plasma and vortexed. The samples were kept sealed in an amber vial and samples were obtained to analyze for bioconversion to parent drug.
An approximated 1 mg/mL stock solution of each prodrug was prepared in 100 μL of ethanol and 900 μL of acetonitrile. Next, 10 μL of stock was spiked into 1 mL of plasma and vortexed. The samples were kept sealed in an amber vial and samples were obtained to analyze for bioconversion to parent drug.
Approximately 1 mg/mL of stock solution of each prodrug was prepared in 100 μL of ethanol and 900 μL of acetonitrile. Ten μL of stock was spiked into 1 mL of plasma and vortexed. The samples were kept sealed in an amber vial and samples were obtained to analyze for bioconversion to parent drug.

[3] = Table 17, 90:8:2 PG:H2O:IPM donor solution, analyte: THC or intact prodrug as applied
[4] = Table 18, 90:8:2 PG:H2O:IPM donor solution, analyte: THC or intact prodrug as applied
[5] = Table 13, gel formulation with 40% aqueous PEG 400 receiver fluid, analyte: THC or intact prodrug as applied
[6] = Table 7, 2.36:1.18:1 PG:ethanol:H2O donor solution, analyte: THC or intact prodrug as applied
[7] = Table 8, gel formulation, analyte: THC or intact prodrug as applied
[8] = Table 19, 90:8:2 PG:H2O:IPM donor solution, analyte: THC or intact prodrug as applied
[9] = Table 2, 100% PG donor solution, analyte: THC or intact prodrug (PD)
[10] = Table 3, 1:1:1 PG:ethanol:H2O donor solution
[11] = Table 4, gel formulation, analyte: THC or intact prodrug (PD)
[12] = Table 5, 1:1:1 PG:ethanol:H2O donor solution and higher flow rate
[13] = Table 6, 1:1:1 PG:ethanol:H2O donor solution, receiver fluid 25% aqueous ethanol
[14] = Table 6, 1:1:1 PG:ethanol:H2O donor solution, receiver fluid 40% aqueous PEG 400
[15] = Table 9, 2.36:1.18:1 pH = 5.5 PG:ethanol:H2O donor solution, analyte: THC or intact prodrug as applied
[16] = Table 10, 2.36:1.18:1 pH = 5.5 PG:ethanol:H2O donor solution, analyte: THC or intact prodrug as applied
[17] = Table 20, 90:8:2 PG:H2O:IPM donor solution (saturated), analyte: THC or intact prodrug as applied
[18] = Table 17, 90:8:2 PG:H2O:IPM donor solution, total THC equivalents (THC and/or prodrug)

CCCCCc1cc(OC(=O)OC[C@H](O)CO)c2c(c1)OC(C)(C)[C@@H]1CCC(C)=C[C@@H]21 [ALL00126, Δ^9-Tetrahydrocannabinol (R)-2,3-dihydroxypropyl carbonate]
24 h cumulative amt [1, 3]: 69.7 ± 10.7 nmol
24 h skin conc [1, 3]: 17.8 ± 4.8 µmol/g
Flux [1, 3]: 5.7 ± 0.0 nmol/cm^2/h
Lag time [1, 3]: 10.8 ± 2.1 h
% Prodrug at time (h) ([2]; Table 15, 0.1 h): 100%
% Prodrug at time (h) ([2]; Table 15, 1 h): 3%
% Prodrug at time (h) ([2]; Table 15, 2.5 h): 1%
% Prodrug at time (h) ([2]; Table 15, 3.5 h): 1%

CCCCCc1cc(OC(=O)C(C)(CO)CO)c2c(c1)OC(C)(C)[C@@H]1CCC(C)=C[C@@H]21 [ALL00129, Δ^9-Tetrahydrocannabinol 3-hydroxy-2-(hydroxymethyl)-2-methylpropanoate]
24 h cumulative amt [1, 4]: 74.2 ± 8.1 nmol
24 h skin conc [1, 4]: 19.6 ± 12.6 µmol/g
Flux [1, 4]: 4.8 ± 0.7 nmol/cm^2/h
Lag time [1, 4]: 7.8 ± 1.3 h
% Prodrug at time (h) ([2]; Table 15, 0.1 h): 100%
% Prodrug at time (h) ([2]; Table 15, 1 h): 100%
% Prodrug at time (h) ([2]; Table 15, 3 h): 98%
% Prodrug at time (h) ([2]; Table 15, 24 h): 83%

CCCCCc1cc(OC(=O)CO)c2c(c1)OC(C)(C)[C@@H]1CCC(C)=C[C@@H]21 [ALL00154, Δ^9-Tetrahydrocannabinol glycolate]
24 h cumulative amt [1, 5]: 39.2 nmol
24 h skin conc [1, 5]: 2.6 ± 1.5 µmol/g
Flux [1, 5]: 3.23 nmol/cm^2/h
Lag time [1, 5]: 12.2 h
% Prodrug at time (h) ([2]; Table 14, 0 h): 95%
% Prodrug at time (h) ([2]; Table 14, 1 h): 0%
% Prodrug at time (h) ([2]; Table 14, 21 h): 0%
% Prodrug at time (h) ([2]; Table 14, 24 h): 0%

CCCCCc1cc(OC(=O)OCCCCN)c2c(c1)OC(C)(C)[C@@H]1CCC(C)=C[C@@H]21 [ALL00127, Δ^9-Tetrahydrocannabinol 4-aminobutyl carbonate]
% Prodrug at time (h) ([2]; Table 15, 0.1 h): 100%
% Prodrug at time (h) ([2]; Table 15, 1 h): 100%
% Prodrug at time (h) ([2]; Table 15, 2.5 h): 91%
% Prodrug at time (h) ([2]; Table 15, 3.5 h): 85%

CCCCCc1cc(OC(=O)CN(C)C=O)c2c(c1)OC(C)(C)[C@@H]1CCC(C)=C[C@@H]21 [ALL00121, Δ^9-Tetrahydrocannabinol N-formylsarcosyl ester]
24 h cumulative amt [1, 6]: 18.5 ± 5.6 nmol
24 h skin conc [1, 6]: 72.3 ± 54.0 µmol/g
Flux [1, 6]: 1.2 ± 0.3 nmol/cm^2/h
Lag time [1, 6]: 8.3 ± 0.5 h
24 h cumulative amt [1, 7]: 8.8 ± 0.1 nmol
24 h skin conc [1, 7]: 33.2 ± 7.2 µmol/g
Flux [1, 7]: 0.38 ± 0.03 nmol/cm^2/h
Lag time [1, 7]: 1.4 ± 0.0 h
% Prodrug at time (h) ([2]; Table 11, 0.1 h): 100%
% Prodrug at time (h) ([2]; Table 11, 1 h): 50%
% Prodrug at time (h) ([2]; Table 11, 22 h): 10%
% Prodrug at time (h) ([2]; Table 11, 24 h): 14%
% Prodrug at time (h) ([2]; Table 11, 42 h): 0%

CCCCCc1cc(OC(=O)[C@@H](O)CO)c2c(c1)OC(C)(C)[C@@H]1CCC(C)=C[C@@H]21 [ALL00134, A9-Tetrahydrocannabinol (S)-2,3-dihydroxypropanoate]
24 h cumulative amt [1, 8]: 128.6 ± 5.1 nmol
24 h skin conc [1, 8]: 24.5 ± 12.3 µmol/g
Flux [1, 8]: 8.0 ± 0.3 nmol/cm^2/h
Lag time [1, 8]: 7.0 ± 0.1 h
% Prodrug at time (h) ([2]; Table 15, 0.1 h): 96%
% Prodrug at time (h) ([2]; Table 15, 0.5 h): 61%
% Prodrug at time (h) ([2]; Table 15, 2 h): 15%
% Prodrug at time (h) ([2]; Table 15, 5 h): 0.8%
% Prodrug at time (h) ([2]; Table 15, 24 h): 0%

CCCCCc1cc(O)c2c(c1)OC(C)(C)[C@@H]1CCC(C)=C[C@@H]21 [Δ^9-tetrahydrocannabinol, reference compound]
24 h cumulative amt ([1]; Table 2, 100% PG donor solution): 6.91 ± 2.1 nmol
24 h skin conc [1, 9]: 74.8 ± 15.5 µmol/g
24 h cumulative amt [1, 10]: 9.0 ± 5.9 nmol
Flux [1, 10]: 0.93 ± 0.58 nmol/cm^2/h
Lag time [1, 10]: 13.0 ± 1.8 h
24 h skin conc ([1]; Table 3, 1:1:1 PG:ethanol:H2O donor solution, analyte: THC or intact prodrug (PD)): 59.4 ± 30.5 µmol/g
24 h cumulative amt ([1]; Table 4, gel formulation): 1.5 ± 0.3 nmol
Flux ([1]; Table 4, gel formulation): 0.14 ± 0.03 nmol/cm^2/h
Lag time ([1]; Table 4, gel formulation): 11.2 ± 2.7 h
24 h skin conc [1, 11]: 100.4 ± 5.8 µmol/g
24 h cumulative amt [1, 12]: 6.0 ± 2.1 nmol
24 h skin conc [1, 12]: 133.8 ± 52.3 µmol/g
Flux [1, 12]: 0.67 ± 0.15 nmol/cm^2/h
Lag time [1, 12]: 8.9 ± 7.2 h
24 h cumulative amt [1, 13]: 9.4 ± 0.2 nmol
24 h skin conc [1, 13]: 24.1 ± 5.2 µmol/g
Flux [1, 13]: 0.70 ± 0.01 nmol/cm^2/h
Lag time [1, 13]: 6.9 ± 0.2 h
24 h cumulative amt [1, 14]: 28.6 ± 3.2 nmol
24 h skin conc [1, 14]: 17.4 ± 11.6 µmol/g
Flux [1, 14]: 1.79 ± 0.39 nmol/cm^2/h
Lag time [1, 14]: 6.4 ± 1.6 h
24 h cumulative amt [1, 6]: 43.1 ± 4.8 nmol
24 h skin conc [1, 6]: 75.2 ± 33.1 µmol/g
Flux [1, 6]: 3.1 ± 0.2 nmol/cm^2/h
Lag time [1, 6]: 9.0 ± 2.9 h
24 h cumulative amt [1, 7]: 10.7 ± 2.1 nmol
24 h skin conc [1, 7]: 40.9 ± 14.7 µmol/g
Flux [1, 7]: 0.62 ± 0.23 nmol/cm^2/h
Lag time [1, 7]: 5.3 ± 3.3 h
24 h cumulative amt [1, 15]: 16.3 ± 7.3 nmol
24 h skin conc [1, 15]: 16.1 ± 0.5 µmol/g
Flux [1, 15]: 1.3 ± 0.5 nmol/cm^2/h
Lag time [1, 15]: 11.4 ± 0.6 h
24 h cumulative amt [1, 16]: 33.6 ± 11.2 nmol
24 h skin conc [1, 16]: 7.4 ± 0.6 µmol/g
Flux [1, 16]: 2.7 ± 1.1 nmol/cm^2/h
Lag time [1, 16]: 10.8 ± 1.4 h
24 h cumulative amt [1, 5]: 3.1 ± 0.8 nmol
24 h skin conc [1, 5]: 3.6 ± 1.7 µmol/g
Flux [1, 5]: 0.17 ± 0.02 nmol/cm^2/h
Lag time [1, 5]: 4.6 ± 3.2 h
24 h cumulative amt [1, 3]: 16.3 ± 0.3 nmol
24 h skin conc [1, 3]: 6.1 ± 1.9 µmol/g
Flux [1, 3]: 1.0 ± 0.3 nmol/cm^2/h
Lag time [1, 3]: 5.8 ± 5.9 h
24 h cumulative amt [1, 4]: 53.3 ± 0.0 nmol
24 h skin conc [1, 4]: 17.4 ± 9.2 µmol/g
Flux [1, 4]: 3.2 ± 0.0 nmol/cm^2/h
Lag time [1, 4]: 6.2 ± 0.0 h
24 h cumulative amt [1, 8]: 29.8 ± 3.3 nmol
24 h skin conc [1, 8]: 23.3 ± 1.7 µmol/g
Flux [1, 8]: 2.0 ± 0.3 nmol/cm^2/h
Lag time [1, 8]: 8.7 ± 0.3 h
24 h cumulative amt [1, 17]: 15.7 ± 4.5 nmol
24 h skin conc [1, 17]: 8.5 ± 3.5 µmol/g
Flux [1, 17]: 1.1 ± 0.3 nmol/cm^2/h
Lag time [1, 17]: 9.0 ± 0.7 h

CCCCCc1cc(OC(=O)COCCOCCOCCOC)c2c(c1)OC(C)(C)[C@@H]1CCC(C)=C[C@@H]21 [ALL00117, Δ^9-Tetrahydrocannabinol 3,6,9,12-tetraoxatridecanoyl ester]
24 h skin conc ([1]; Table 2, 100% PG donor solution, analyte: THC from prodrug): 1.1 ± 0.0 µmol/g
24 h skin conc [1, 9]: 8.9 ± 7.1 µmol/g
24 h cumulative amt ([1]; Table 4, gel formulation): 1.7 ± 0.0 nmol
Flux ([1]; Table 4, gel formulation): 0.07 ± 0.00 nmol/cm^2/h
24 h skin conc ([1]; Table 4, gel formulation, analyte: THC from prodrug): 0.7 ± 0.1 µmol/g
24 h skin conc [1, 11]: 13.8 ± 4.1 µmol/g
24 h cumulative amt ([1]; Table 17, 90:8:2 PG:H2O:IPM donor solution, analyte: THC from prodrug): 0.7 ± 0.7 nmol
24 h cumulative amt [1, 3]: 3.0 ± 0.3 nmol
24 h skin conc [1, 3]: 7.3 ± 1.8 µmol/g
Flux [1, 3]: 0.4 ± 0.1 nmol/cm^2/h
Lag time [1, 3]: 15.1 ± 0.2 h
Flux enhancement ([1]; Table 17, 90:8:2 PG:H2O:IPM donor solution, total THC equivalents): 0.45
24 h cumulative amt [1, 18]: 3.7 ± 1.0 nmol
24 h skin conc [1, 18]: 7.3 ± 1.8 µmol/g
Flux [1, 18]: 0.5 ± 0.1 nmol/cm^2/h
Lag time [1, 18]: 15.4 ± 0.3 h
% Prodrug at time (h) ([2]; Table 15, 0.1 h): 100%
% Prodrug at time (h) ([2]; Table 15, 1 h): 35%
% Prodrug at time (h) ([2]; Table 15, 2.5 h): 7%
% Prodrug at time (h) ([2]; Table 15, 3.5 h): 5%

CCCCCc1cc(OC(=O)[C@H](O)CO)c2c(c1)OC(C)(C)[C@@H]1CCC(C)=C[C@@H]21 [ALL00144, THC (R)-2,3-dihydroxypropanoate]
24 h cumulative amt [1, 8]: 137.9 ± 55.2 nmol
24 h skin conc [1, 8]: 65.5 ± 39.5 µmol/g
Flux [1, 8]: 8.6 ± 3.4 nmol/cm^2/h
Lag time [1, 8]: 7.2 ± 0.1 h

CCCCCc1cc(OC(=O)C2CCCN2)c2c(c1)OC(C)(C)[C@@H]1CCC(C)=C[C@@H]21 (stereo partly drawn) [ALL00125, Δ^9-Tetrahydrocannabinol prolyl ester]
% Prodrug at time (h) ([2]; Table 11, 0.1 h): 100%
% Prodrug at time (h) ([2]; Table 11, 2 h): 77%
% Prodrug at time (h) ([2]; Table 11, 5 h): 55%
% Prodrug at time (h) ([2]; Table 11, 22 h): 0%
% Prodrug at time (h) ([2]; Table 11, 24 h): 0%
% Prodrug at time (h) ([2]; Table 11, 42 h): 0%
